Measurements from the NIST ThermoML archive (doi:10.1021/je300938w).
± gives the expanded uncertainty stated by the source.

Test: wn = mass fraction of the nth substance listed
Conditions: 298.15 K; 101 kPa; Liquid; Concentric cylinders viscometry; w1 = 0.05

SMILES	viscosity [mPa·s]
CC(O)CN (stereo unspecified) [1-amino-2-propanol] + O	1.088 ± 0.0074
CC(O)CNCC(C)O (stereo unspecified) [N-(2-hydroxypropyl)-2-hydroxy-1-propanamine] + O	1.117 ± 0.0075
OCCNCCO [diethanolamine] + O	1.059 ± 0.0073

Same assay, conditions: 298.15 K; 101 kPa; Liquid; Concentric cylinders viscometry; w1 = 0.1

SMILES	viscosity [mPa·s]
CC(O)CN (stereo unspecified) [1-amino-2-propanol] + O	1.296 ± 0.0082
CC(O)CNCC(C)O (stereo unspecified) [N-(2-hydroxypropyl)-2-hydroxy-1-propanamine] + O	1.394 ± 0.0086
OCCNCCO [diethanolamine] + O	1.27 ± 0.0079

Same assay, conditions: 298.15 K; 101 kPa; Liquid; Concentric cylinders viscometry; w1 = 0.15

SMILES	viscosity [mPa·s]
CC(O)CN (stereo unspecified) [1-amino-2-propanol] + O	1.569 ± 0.0094
CC(O)CNCC(C)O (stereo unspecified) [N-(2-hydroxypropyl)-2-hydroxy-1-propanamine] + O	1.814 ± 0.01
OCCNCCO [diethanolamine] + O	1.503 ± 0.0088

Same assay, conditions: 298.15 K; 101 kPa; Liquid; Concentric cylinders viscometry; w1 = 0.2

SMILES	viscosity [mPa·s]
CC(O)CN (stereo unspecified) [1-amino-2-propanol] + O	1.944 ± 0.011
CC(O)CNCC(C)O (stereo unspecified) [N-(2-hydroxypropyl)-2-hydroxy-1-propanamine] + O	2.288 ± 0.013
OCCNCCO [diethanolamine] + O	1.893 ± 0.01

Same assay, conditions: 298.15 K; 101 kPa; Liquid; Concentric cylinders viscometry; w1 = 0.25

SMILES	viscosity [mPa·s]
CC(O)CN (stereo unspecified) [1-amino-2-propanol] + O	2.444 ± 0.014
CC(O)CNCC(C)O (stereo unspecified) [N-(2-hydroxypropyl)-2-hydroxy-1-propanamine] + O	3.026 ± 0.016
OCCNCCO [diethanolamine] + O	2.376 ± 0.012

Same assay, conditions: 298.15 K; 101 kPa; Liquid; Vibrating tube method; w1 = 0.05

SMILES	mass density [kg/m3]
CC(O)CN (stereo unspecified) [1-amino-2-propanol] + O	998.574 ± 0.039
CC(O)CNCC(C)O (stereo unspecified) [N-(2-hydroxypropyl)-2-hydroxy-1-propanamine] + O	1000.6 ± 0.041
OCCNCCO [diethanolamine] + O	1003.46 ± 0.042

Same assay, conditions: 298.15 K; 101 kPa; Liquid; Vibrating tube method; w1 = 0.1

SMILES	mass density [kg/m3]
CC(O)CN (stereo unspecified) [1-amino-2-propanol] + O	999.182 ± 0.048
CC(O)CNCC(C)O (stereo unspecified) [N-(2-hydroxypropyl)-2-hydroxy-1-propanamine] + O	1003.53 ± 0.051
OCCNCCO [diethanolamine] + O	1009.09 ± 0.045

Same assay, conditions: 298.15 K; 101 kPa; Liquid; Vibrating tube method; w1 = 0.15

SMILES	mass density [kg/m3]
CC(O)CN (stereo unspecified) [1-amino-2-propanol] + O	999.932 ± 0.061
CC(O)CNCC(C)O (stereo unspecified) [N-(2-hydroxypropyl)-2-hydroxy-1-propanamine] + O	1006.99 ± 0.065
OCCNCCO [diethanolamine] + O	1014.94 ± 0.049

Same assay, conditions: 298.15 K; 101 kPa; Liquid; Vibrating tube method; w1 = 0.2

SMILES	mass density [kg/m3]
CC(O)CN (stereo unspecified) [1-amino-2-propanol] + O	1001.03 ± 0.077
CC(O)CNCC(C)O (stereo unspecified) [N-(2-hydroxypropyl)-2-hydroxy-1-propanamine] + O	1010.4 ± 0.083
OCCNCCO [diethanolamine] + O	1020.92 ± 0.052

Same assay, conditions: 298.15 K; 101 kPa; Liquid; Vibrating tube method; w1 = 0.25

SMILES	mass density [kg/m3]
CC(O)CN (stereo unspecified) [1-amino-2-propanol] + O	1002.46 ± 0.098
CC(O)CNCC(C)O (stereo unspecified) [N-(2-hydroxypropyl)-2-hydroxy-1-propanamine] + O	1014.1 ± 0.1
OCCNCCO [diethanolamine] + O	1027.11 ± 0.056

Same assay, conditions: 303.15 K; 101 kPa; Liquid; Concentric cylinders viscometry; w1 = 0.05

SMILES	viscosity [mPa·s]
CC(O)CN (stereo unspecified) [1-amino-2-propanol] + O	0.9733 ± 0.0071
CC(O)CNCC(C)O (stereo unspecified) [N-(2-hydroxypropyl)-2-hydroxy-1-propanamine] + O	0.9968 ± 0.0072
OCCNCCO [diethanolamine] + O	0.9498 ± 0.007

Same assay, conditions: 303.15 K; 101 kPa; Liquid; Concentric cylinders viscometry; w1 = 0.1

SMILES	viscosity [mPa·s]
CC(O)CN (stereo unspecified) [1-amino-2-propanol] + O	1.148 ± 0.0077
CC(O)CNCC(C)O (stereo unspecified) [N-(2-hydroxypropyl)-2-hydroxy-1-propanamine] + O	1.228 ± 0.008
OCCNCCO [diethanolamine] + O	1.129 ± 0.0075

Same assay, conditions: 303.15 K; 101 kPa; Liquid; Concentric cylinders viscometry; w1 = 0.15

SMILES	viscosity [mPa·s]
CC(O)CN (stereo unspecified) [1-amino-2-propanol] + O	1.372 ± 0.0086
CC(O)CNCC(C)O (stereo unspecified) [N-(2-hydroxypropyl)-2-hydroxy-1-propanamine] + O	1.569 ± 0.0094
OCCNCCO [diethanolamine] + O	1.319 ± 0.0081

Same assay, conditions: 303.15 K; 101 kPa; Liquid; Concentric cylinders viscometry; w1 = 0.2

SMILES	viscosity [mPa·s]
CC(O)CN (stereo unspecified) [1-amino-2-propanol] + O	1.678 ± 0.01
CC(O)CNCC(C)O (stereo unspecified) [N-(2-hydroxypropyl)-2-hydroxy-1-propanamine] + O	1.952 ± 0.011
OCCNCCO [diethanolamine] + O	1.649 ± 0.0093

Same assay, conditions: 303.15 K; 101 kPa; Liquid; Concentric cylinders viscometry; w1 = 0.25

SMILES	viscosity [mPa·s]
CC(O)CN (stereo unspecified) [1-amino-2-propanol] + O	2.083 ± 0.012
CC(O)CNCC(C)O (stereo unspecified) [N-(2-hydroxypropyl)-2-hydroxy-1-propanamine] + O	2.539 ± 0.014
OCCNCCO [diethanolamine] + O	2.05 ± 0.011

Same assay, conditions: 303.15 K; 101 kPa; Liquid; Vibrating tube method; w1 = 0.05

SMILES	mass density [kg/m3]
CC(O)CN (stereo unspecified) [1-amino-2-propanol] + O	997.087 ± 0.04
CC(O)CNCC(C)O (stereo unspecified) [N-(2-hydroxypropyl)-2-hydroxy-1-propanamine] + O	999.133 ± 0.041
OCCNCCO [diethanolamine] + O	1001.98 ± 0.042

Same assay, conditions: 303.15 K; 101 kPa; Liquid; Vibrating tube method; w1 = 0.1

SMILES	mass density [kg/m3]
CC(O)CN (stereo unspecified) [1-amino-2-propanol] + O	997.57 ± 0.049
CC(O)CNCC(C)O (stereo unspecified) [N-(2-hydroxypropyl)-2-hydroxy-1-propanamine] + O	1001.97 ± 0.05
OCCNCCO [diethanolamine] + O	1007.53 ± 0.045

Same assay, conditions: 303.15 K; 101 kPa; Liquid; Vibrating tube method; w1 = 0.15

SMILES	mass density [kg/m3]
CC(O)CN (stereo unspecified) [1-amino-2-propanol] + O	998.142 ± 0.061
CC(O)CNCC(C)O (stereo unspecified) [N-(2-hydroxypropyl)-2-hydroxy-1-propanamine] + O	1005.27 ± 0.064
OCCNCCO [diethanolamine] + O	1013.27 ± 0.048

Same assay, conditions: 303.15 K; 101 kPa; Liquid; Vibrating tube method; w1 = 0.2

SMILES	mass density [kg/m3]
CC(O)CN (stereo unspecified) [1-amino-2-propanol] + O	999.018 ± 0.077
CC(O)CNCC(C)O (stereo unspecified) [N-(2-hydroxypropyl)-2-hydroxy-1-propanamine] + O	1008.5 ± 0.082
